# Assay results published in US10184129B2, “Method and compositions to promote plant growth in metal contaminated environments” (The Regents of the University of California, priority 2011, dated 2019).
# “Also recorded” adds a separate entry of the source.
# System: Col-0 wt and als7-1/swa2-2 roots
# Test: Root growth of seedlings in a hydroponic environment supplemented with AlCl3 (pH 4.2)
# Format: in vivo, Arabidopsis
# Conditions: for increase in root growth: pH 4.2
# Experimental: Seedlings of Col-0 wt and als7-1/swa2-2 were grown for 7 d hydroponically either in the absence or presence 25 μM AlCl3 (pH 4.2), after which root tissue was collected for analysis of spermine content by HPLC. […] Seedlings of Col-0 wt and als7-1/swa2-2 were grown in a hydroponic environment either in the absence or presence of 25 μM AlCl3 (pH 4.2) with or without 25 μM spermine. After 7 d growth, root length was measured for all treatments, with mean±SE values determined from 30 roots of each. […] Seedlings of Col-0 wt were grown either in the absence or presence of 1.5 mM DEMO in a hydroponic environment supplemented with increasing concentrations of AlCl3 (pH 4.2). After 7 d, root length was measured for all treatments, with mean±SE values determined from 30 roots of each. […] Seedlings of Col-0 wt were grown hydroponically either in the absence or presence of 25 μM spermine for 5 d after which the samples were transferred to a solution with or without 25 μM AlCl3 (pH 4.2) containing either 0 or 25 μM spermine. Following 2 d of growth, root tissue was collected and treated for measurement of Al content by ICP-OES.
# For all growth experiments performed, Col-0 wt and mutant seeds were surface-sterilized with household bleach and cold stratified for 4 d at 4° C. in the dark for synchronization of germination. Seeds were subsequently suspended in 0.15% (w/v) agarose and for planting on either soaked gel plates or hydroponic plates. Further description of the growth experiments can be found in Larsen, P. B., Geisler, M. J. B., Jones, C. A., Williams, K. M., and Cancel, J. D. (2005), ALS3 encodes a phloem-localized ABC transporter-like protein that is required for aluminum tolerance in Arabidopsis. Plant J. 41, 353-63. All growth analyses were done in a Percival 136LLVL plant growth chamber under a 24 hr light cycle at 20° C. Adult plants were grown in soil under a 24 hr light cycle at 20° C. in a plant growth room supplemented with Sylvania Gro-Lite® fluorescent bulbs.
smiles,measurement,setting,value
NCCCNCCCCNCCCN [spermine],root growth in the presence of Al (in words),"Col-0 wt and als7-1/swa2-2 seedlings, 25 μM spermine, 25 μM AlCl3 pH 4.2, hydroponic, 7 d",increases root growth; also recorded: substantial increase in root growth
same,increase in root growth,"Col-0 wt, 25 μM spermine, 25 or 50 μM AlCl3, hydroponic, 7 d",≥ 6 fold
same,root growth compared to untreated controls (in words),"Col-0 wt, spermine added, 25 or 50 μM AlCl3, hydroponic",remained significantly inhibited
same,increase in root growth,"als7-1/swa2-2, 25 μM spermine, 25 or 50 μM AlCl3, hydroponic, 7 d",≥ 6 fold
same,root growth in the presence of Al (in words),"als7-1/swa2-2, spermine added, 25 or 50 μM AlCl3, hydroponic",almost full restoration
